Values of other authors in paper PMC7311426, “An amphipathic peptide with antibiotic activity against multidrug-resistant Gram-negative bacteria” (Nature Communications, 2020).

tested on: P. aeruginosa; conditions: P. aeruginosa ATCC 27853; quality control range printed beside broth microdilution MIC of parent strain; cited from earlier work

`NC[C@H]1O[C@H](O[C@H]2[C@H](O)[C@@H](O[C@H]3O[C@H](CO)[C@@H](O)[C@H](N)[C@H]3O)[C@H](N)C[C@@H]2N)[C@H](N)C[C@@H]1O` [TOB] and `C[C@@H](O)[C@H]1C(=O)N2C(C(=O)O)=C(S[C@@H]3CN[C@H](C(=O)N(C)C)C3)[C@H](C)[C@H]12` [Meropenem, meropenem, reference compound] cannot be ordered by “MIC Quality control range” value: 0.25 to 1 µg/mL for the first, 0.12 to 1 µg/mL for the second.

For `C[C@H]1[C@H](NC(=O)/C(=N\OC(C)(C)C(=O)O)c2csc(N)n2)C(=O)N1S(=O)(=O)O` [AZT], the “MIC Quality control range” value is given as 2 to 8 µg/mL.
